Measured values from patent US12552752B2, “Atropisomers of pyridazinone derivatives as herbicides” (FMC Corporation, priority 2020, dated 2026).
Values joined by “and” are separate entries in the source; they are usually repeats but may differ in a detail not shown here. Identical values can stand only once.

Key:
Type in all cases: in vivo
[1] = test system: ryegrass, Italian (RGI, Lolium multiflorum); assay: Test A postemergence, Italian ryegrass; details: POST, 0 to 100 scale, approximately 10 d
Excerpt: (§1) Seeds of plant species selected from barnyardgrass (BYG, Echinochloa crus-galli), kochia (KOC, Kochia scoparia), ragweed (common ragweed, Ambrosia elatior), ryegrass, Italian (RGI, Lolium multiflorum), foxtail, giant (FTI, Setaria faberii), foxtail, green (Setaria viridis) and pigweed (PWR, Amaranthus retroflexus) were planted into a blend of loam soil and sand and treated preemergence with a directed soil spray using test chemicals formulated in a non-phytotoxic solvent mixture which included a surfactant. At the same time, plants selected from these weed species and also wheat (WWT, Triticum aestivum), corn (CPI, Zea mays), blackgrass (BKG, Alopecurus myosuroides) and galium (GAL, catchweed bedstraw, Galium aparine) were planted in pots containing the same blend of loam soil and sand and treated with postemergence applications of test chemicals formulated in the same manner Plants ranged in height from 2 to 10 cm and were in the one- to two-leaf stage for the postemergence treatment. Treated plants and untreated controls were maintained in a greenhouse for approximately 10 d, after which time all treated plants were compared to untreated controls and visually evaluated for injury. Plant response ratings, summarized in Tables 1-4, are based on a 0 to 100 scale where 0 is no effect and 100 is complete control. A dash (−) response means no test result. The ratings are followed by a letter representing the symptomology where S is Albinism, C is Chlorosis, G is Growth Inhibition and E is Emergence.

[2] = test system: kochia (KOC, Kochia scoparia); assay: Test A preemergence, kochia; details: PRE, 0 to 100 scale, approximately 10 d
Excerpt: as §1

[3] = test system: kochia (KOC, Kochia scoparia); assay: Test A postemergence, kochia; details: POST, 0 to 100 scale, approximately 10 d
Excerpt: as §1

[4] = test system: pigweed (PWR, Amaranthus retroflexus); assay: Test A preemergence, pigweed; details: PRE, 0 to 100 scale, approximately 10 d
Excerpt: as §1

[5] = test system: pigweed (PWR, Amaranthus retroflexus); assay: Test A postemergence, pigweed; details: POST, 0 to 100 scale, approximately 10 d
Excerpt: as §1

[6] = test system: foxtail, giant (FTI, Setaria faberii); assay: Test A preemergence, giant foxtail; details: PRE, 0 to 100 scale, approximately 10 d
Excerpt: as §1

[7] = test system: ryegrass, Italian (RGI, Lolium multiflorum); assay: Test A preemergence, Italian ryegrass; details: PRE, 0 to 100 scale, approximately 10 d
Excerpt: as §1

[8] = test system: barnyardgrass (BYG, Echinochloa crus-galli); assay: Test A preemergence, barnyardgrass; details: PRE, 0 to 100 scale, approximately 10 d
Excerpt: as §1

[9] = test system: blackgrass (BKG, Alopecurus myosuroides); assay: Test A postemergence, blackgrass; details: POST, 0 to 100 scale, approximately 10 d
Excerpt: as §1

[10] = test system: barnyardgrass (BYG, Echinochloa crus-galli); assay: Test A postemergence, barnyardgrass; details: POST, 0 to 100 scale, approximately 10 d
Excerpt: as §1

[11] = test system: ragweed (common ragweed, Ambrosia elatior); assay: Test A postemergence, ragweed; details: POST, 0 to 100 scale, approximately 10 d
Excerpt: as §1

[12] = test system: foxtail, giant (FTI, Setaria faberii); assay: Test A postemergence, giant foxtail; details: POST, 0 to 100 scale, approximately 10 d
Excerpt: as §1

corn (CPI, Zea mays) = assay: Test A postemergence, corn; details: POST, 0 to 100 scale, approximately 10 d
Excerpt: as §1

[13] = test system: ragweed (common ragweed, Ambrosia elatior); assay: Test A preemergence, ragweed; details: PRE, 0 to 100 scale, approximately 10 d
Excerpt: as §1

[14] = test system: galium (GAL, catchweed bedstraw, Galium aparine); assay: Test A postemergence, galium; details: POST, 0 to 100 scale, approximately 10 d
Excerpt: as §1

[15] = test system: wheat (WWT, Triticum aestivum); assay: Test A postemergence, wheat; details: POST, 0 to 100 scale, approximately 10 d
Excerpt: as §1

[16] = 16 g ai/ha, listed as drawing 31
[17] = 62 g ai/ha, listed as drawing 31
[18] = 125 g ai/ha, listed as drawing 31
[19] = 31 g ai/ha, listed as drawing 31
[20] = 16 g ai/ha, listed as drawing 32
[21] = 31 g ai/ha, listed as drawing 32
[22] = 62 g ai/ha, listed as drawing 32
[23] = 125 g ai/ha, listed as drawing 32
[24] = 31 g ai/ha, listed as drawing 25
[25] = 125 g ai/ha, listed as drawing 25

SMILES: CCC(=O)Oc1c(Cl)nn(C)c(=O)c1-c1c(C)ccc2ccccc12 (racemic) [5 (Enantiomer 5A)]
- Plant response rating RGI [1, 16]: 10 S
- Plant response rating RGI [1, 17]: 50 S
- Plant response rating KOC ([2]; 16 g ai/ha): 10 C
- Plant response rating KOC [2, 17]: 70 S
- Plant response rating KOC [2, 18]: 80 S
- Plant response rating KOC [3, 16]: 70 S
- Plant response rating KOC ([3]; 31 g ai/ha): 70 S
- Plant response rating KOC [3, 17]: 80 S
- Plant response rating KOC [3, 18]: 80 S and 70 S
- Plant response rating PWR [4, 16]: 10 C
- Plant response rating PWR ([4]; 31 g ai/ha): 60 C and 100 C
- Plant response rating PWR [4, 17]: 90 C
- Plant response rating PWR [5, 16]: 80 S
- Plant response rating PWR ([5]; 31 g ai/ha): 90 S
- Plant response rating PWR ([5]; 62 g ai/ha): 90 S
- Plant response rating PWR [5, 18]: 90 S
- Plant response rating FTI ([6]; 16 g ai/ha): 0
- Plant response rating FTI [6, 17]: 0
- Plant response rating RGI ([7]; 16 g ai/ha): 0
- Plant response rating RGI ([7]; 31 g ai/ha): 0
- Plant response rating RGI [7, 17]: 0
- Plant response rating RGI [7, 18]: 30 S and 20 S
- Plant response rating BYG ([8]; 16 g ai/ha): 0
- Plant response rating BYG ([8]; 31 g ai/ha): 0
- Plant response rating BYG ([8]; 62 g ai/ha): 0
- Plant response rating BKG [9, 16]: 0
- Plant response rating BKG [9, 19]: 0
- Plant response rating BKG [9, 17]: 0
- Plant response rating BYG [10, 16]: 0
- Plant response rating BYG [10, 17]: 0
- Plant response rating BYG [10, 18]: 30 S and 20 S
- Plant response rating RWC [11, 16]: 80 S
- Plant response rating RWC ([11]; 31 g ai/ha): 90 S
- Plant response rating RWC ([11]; 62 g ai/ha): 90 S
- Plant response rating RWC [11, 18]: 90 S
- Plant response rating FTI [12, 16]: 10 C
- Plant response rating FTI [12, 19]: 10 S
- Plant response rating FTI [12, 17]: 10 S
- Plant response rating FTI [12, 18]: 20 S and 30 S
- Plant response rating CPI (corn (CPI, Zea mays); 16 g ai/ha): 0
- Plant response rating CPI (corn (CPI, Zea mays); [19]): 0
- Plant response rating CPI (corn (CPI, Zea mays); 62 g ai/ha): 0
- Plant response rating RWC [13, 16]: 0
- Plant response rating RWC [13, 17]: 90 C
- Plant response rating RWC [13, 18]: 100 C and 90 C
- Plant response rating GAL ([14]; 16 g ai/ha): 90 S
- Plant response rating GAL [14, 19]: 90 S
- Plant response rating GAL ([14]; 62 g ai/ha): 100 S
- Plant response rating GAL ([14]; 125 g ai/ha): 100 S
- Plant response rating WWT [15, 16]: 0
- Plant response rating WWT [15, 19]: 0
- Plant response rating WWT [15, 17]: 0
- Plant response rating WWT [15, 18]: 0

SMILES: CCC(=O)Oc1c(Cl)nn(C)c(=O)c1-c1c(C)ccc2ccccc12 (racemic) [5 (Enantiomer 5B)]
- Plant response rating RGI [1, 20]: 40 C
- Plant response rating RGI [1, 21]: 70 C and 80 C
- Plant response rating RGI [1, 22]: 80 C
- Plant response rating KOC [2, 22]: 50 S
- Plant response rating KOC [2, 23]: 70 S and 50 S
- Plant response rating KOC [3, 20]: 50 S
- Plant response rating KOC [3, 22]: 70 S
- Plant response rating KOC [3, 23]: 80 S and 90 S
- Plant response rating PWR [4, 20]: 0
- Plant response rating PWR [4, 22]: 60 G
- Plant response rating PWR [5, 20]: 90 S
- Plant response rating PWR [5, 23]: 100 S
- Plant response rating FTI [6, 22]: 30 S
- Plant response rating RGI [7, 22]: 10 S
- Plant response rating BKG [9, 20]: 20 S
- Plant response rating BKG [9, 22]: 40 G
- Plant response rating BKG [9, 23]: 50 S and 80 S
- Plant response rating BYG [10, 20]: 30 S
- Plant response rating BYG [10, 22]: 40 S
- Plant response rating BYG [10, 23]: 80 S and 90 S
- Plant response rating RWC [11, 20]: 90 S
- Plant response rating RWC [11, 23]: 100 S and 90 S
- Plant response rating FTI [12, 20]: 20 S
- Plant response rating FTI [12, 21]: 60 S and 50 S
- Plant response rating FTI [12, 22]: 60 S
- Plant response rating FTI [12, 23]: 90 S
- Plant response rating RWC [13, 20]: 20 S
- Plant response rating RWC ([13]; 31 g ai/ha): 70 S and 50 S
- Plant response rating RWC [13, 22]: 70 S
- Plant response rating RWC [13, 23]: 100 C and 90 C
- Plant response rating GAL [14, 21]: 90 S and 100 S
- Plant response rating WWT [15, 20]: 0
- Plant response rating WWT [15, 22]: 10 S
- Plant response rating WWT [15, 23]: 50 S

SMILES: Cc1ccc2ccc(C)c(-c3c(O)c(Cl)nn(C)c3=O)c2c1 (single isomer, unassigned) [2 (Enantiomer 2A)]
- Plant response rating RGI [1, 24]: 30 S
- Plant response rating RGI [1, 25]: 40 S
- Plant response rating KOC [2, 24]: 10 C
- Plant response rating KOC [2, 25]: 80 S
- Plant response rating KOC ([3]; 31 g ai/ha): 60 S
- Plant response rating KOC [3, 25]: 80 S
- Plant response rating PWR ([4]; 31 g ai/ha): 100 C 100 C 100 C 100 C
- Plant response rating PWR ([4]; 125 g ai/ha): 100 C 100 C 100 C 100 C
- Plant response rating PWR ([5]; 31 g ai/ha): 100 C 100 C 100 C 100 C
- Plant response rating PWR ([5]; 125 g ai/ha): 100 C 100 C 100 C 100 C
- Plant response rating FTI [6, 24]: 20 S
- Plant response rating FTI [6, 25]: 40 S
- Plant response rating RGI [7, 24]: 20 G
- Plant response rating RGI [7, 25]: 20 G
- Plant response rating BYG [8, 24]: 0
- Plant response rating BYG [8, 25]: 50 G
- Plant response rating BKG [9, 24]: 0
- Plant response rating BKG [9, 25]: 20 S
- Plant response rating BYG [10, 24]: 20 C
- Plant response rating BYG [10, 25]: 30 C
- Plant response rating RWC [11, 24]: 90 S 90 S
- Plant response rating RWC [11, 25]: 90 S 90 S
- Plant response rating FTI [12, 24]: 30 S
- Plant response rating FTI [12, 25]: 60 S
- Plant response rating CPI (corn (CPI, Zea mays); [24]): 10 G
- Plant response rating CPI (corn (CPI, Zea mays); 125 g ai/ha): 30 G
- Plant response rating GAL [14, 24]: 100 C 100 C
- Plant response rating GAL [14, 25]: 100 C 100 C
- Plant response rating WWT [15, 24]: 0
- Plant response rating WWT [15, 25]: 0
